Data taken from patent US8017346B2, “Method of quantifying the G protein-coupled receptor (GPCR)/G protein coupling using a cell membrane array” (Universidad Del Pais Vasco, priority 2005, dated 2011).
Peptide text beside a SMILES is read from it.

Test system: galanin receptors
Assay: [35S]GTPγS autoradiography on tissue membrane arrays with galanin receptor ligands
Type: biochemical, rat
Details: for [35S]GTPγS fixing in the presence of ligand versus baseline: pituitary gland membranes, tissue array (FIG. 4); for effect on the action of galnon on [35S]GTPγS fixing: combination with galnon, tissue arrays (FIG. 5)
From the text: 5 male Sprague Dawley rats (250-275 g) were anesthetized and sacrificed according to the guide approved by the Ethics Committee of the Faculty of Medicine of the University of the Basque Country, following the internationally accepted guidelines (86/609/EEC). The organs and tissue which were to be used in the experiment (pancreas, stomach, small intestine, spleen, heart, lung, liver, testicle, vas deferens, kidney, suprarenal glands, bone marrow and brain: frontal cortex, striatum, brain stem, pituitary gland, olfactory nuclei, hippocampus, hypothalamus, thalamus, colliculus and cerebellum) were then removed. These samples were stored at −70° C. until the experiment was carried out.
The tissue samples (1 g) were homogenized using a teflon-glass homogenizer (10 strokes at 1,500 rpm) in 30 volumes of homogenization buffer [1 mM ethylene glycol-bis(β-aminoethyl)-N,N,N′,N′-tetraacetic acid (EGTA), 3 mM MgCl2, 1 mM dithiothreitol (DTT) and 50 mM Tris-HCl, pH 7.4] supplemented with […] sucrose. The crude homogenate was centrifuged at 3,000×g and at 4° C. for 5 minutes and the resulting supernatant was again centrifuged at 40,000×g for 10 minutes (4° C.). The pellet was washed in 20 volumes of homogenization buffer and re-centrifuged in the same conditions. Aliquots were carried out and stored at −70° C. The protein content was determined according to the Bradford method [Bradford M M., Anal Biochem 1976; 72:248-54] using bovine serum albumin (BSA) as a standard.
1 mg/ml aliquots of each tissue were taken and with this suspension, 1 μl microspots were made on glass supports (slides) which were previously treated with concentrated orthophosphoric acid (85%); to that end, the slides were first washed with acetone and then with anhydrous isopropanol, they were dried and finally submersed in concentrated orthophosphoric acid (85%) for 24 hours, they were washed with distilled water (Millipore) and air-dried. The arrays were frozen at −70° C. until the experiment was carried out.
The slides with tissue sections were allowed to dry for 15 minutes at room temperature. The tissue section were then pre-incubated in assay buffer at pH 7.4 [50 mM Tris-HCl, 3 mM MgCl2, 0.2 mM EGTA, 100 mM NaCl, 3 mU/ml adenosine deaminase] for 20 minutes at room temperature to eliminate, as much as possible, the presence of endogenous neurotransmitters; afterwards, the sections were pre-incubated again in the assay buffer supplemented with guanosine diphosphate (GDP) (2 mM) and DTT (1 mM).
The slides were then incubated for 2 hours at 30° C. in the previous assay buffer, to which the following substances were added according to the different conditions of the experiment:
Baseline: 0.04 nM [^35S] GTPγS
Activated: 0.04 nM [^35S] GTPγS+agonist
Inhibited: 0.04 nM [^35S]GTPγS+agonist+antagonist
Non-specific: 0.04 nM [^35S] GTPγS+10 μM GTPγS
Once this time had elapsed, 2 washings of 15 minutes in the buffer 50 mM Tris-HCl, pH 7.4 at 4° C. were carried out. After the second washing, the sections were submersed in distilled water at 4° C. to eliminate the salts and the slide was dried by means of applying a cold air current.
The slides with the corresponding sections were then exposed to a radiosensitive film (Kodak Biomax MR) which was developed in a manner similar to a photographic film. The labeling was quantified according to the different gray densities at nCi/g of tissue equivalent. To that end, each film was exposed together with the previously calibrated commercial standards (Amersham). The quantification was carried out with microscopic anatomical resolution in a computerized image analysis system, using NIH-image software, of G protein activation.
The following ligands were used to study [^35S] GTPγS fixing in the absence (baseline) and in the presence of galanin receptor ligands: galanin, galnon, gal (2-11), M15 [galanin-(1-13)-substance P-5-11 amide], M35 [galanin-(1-13)-bradykinin-(2,9) amide] and M40 [galanin-(1-13)-[…]amide].

[35S]GTPγS fixing in the presence of ligand versus baseline | effect on the action of galnon on [35S]GTPγS fixing | Compound
increase |  | gal (2-11): galanin receptor ligand
increase | antagonized | galanin-(1-13)-Pro-Pro-Ala-Leu-Ala-Leu-Ala-Leu-Ala amide [M40]
increase | antagonized | galanin-(1-13)-bradykinin-(2,9) amide [M35]
increase |  | galanin-(1-13)-substance P-5-11 amide [M15]

Compound | [35S]GTPγS fixing in the presence of ligand versus baseline | effect on the action of galnon on [35S]GTPγS fixing
Cc1cc(=O)oc2cc(NC(=O)[C@H](CCCCN)NC(=O)[C@H](CC3CCCCC3)NC(=O)OCC3c4ccccc4-c4ccccc43)ccc12 [galnon] (HELM PEPTIDE1{[O=C(OCC1c2ccccc2-c2ccccc21)[*:2]].[Cha].K.[Cc1cc(=O)oc2cc(N[*:1])ccc12]}$$$$V2.0) | increase | 
